As a reminder, the EC50 is the concentration that produces a half-maximal response.

Where a SMILES comes first, the peptide text is derived from it. Bridges are numbered along the chain shown (N, C = ends). [ ]: non-standard residue; d: D form. ξ: configuration not given here. Bip(2'-Et-4'-OMe) = CCc1cc(OC)ccc1-c1ccc(C[C@H](N)C(=O)O)cc1; αMePhe(2,6-F2) = C[C@](N)(Cc1c(F)cccc1F)C(=O)O; ξαMePhe(2,6-F2) = CC(N)(Cc1c(F)cccc1F)C(=O)O; Bip = N[C@@H](Cc1ccc(-c2ccccc2)cc1)C(=O)O; αMePhe(2-F) = C[C@](N)(Cc1ccccc1F)C(=O)O; ξαMePhe(2-F) = CC(N)(Cc1ccccc1F)C(=O)O; hhPhe = N[C@@H](CCCc1ccccc1)C(=O)O; αMeF = C[C@](N)(Cc1ccccc1)C(=O)O; ξαMeF = CC(N)(Cc1ccccc1)C(=O)O; Aib = CC(C)(N)C(=O)O

Glucagon-like peptide 1 receptor, sequence (P43220 whole entry): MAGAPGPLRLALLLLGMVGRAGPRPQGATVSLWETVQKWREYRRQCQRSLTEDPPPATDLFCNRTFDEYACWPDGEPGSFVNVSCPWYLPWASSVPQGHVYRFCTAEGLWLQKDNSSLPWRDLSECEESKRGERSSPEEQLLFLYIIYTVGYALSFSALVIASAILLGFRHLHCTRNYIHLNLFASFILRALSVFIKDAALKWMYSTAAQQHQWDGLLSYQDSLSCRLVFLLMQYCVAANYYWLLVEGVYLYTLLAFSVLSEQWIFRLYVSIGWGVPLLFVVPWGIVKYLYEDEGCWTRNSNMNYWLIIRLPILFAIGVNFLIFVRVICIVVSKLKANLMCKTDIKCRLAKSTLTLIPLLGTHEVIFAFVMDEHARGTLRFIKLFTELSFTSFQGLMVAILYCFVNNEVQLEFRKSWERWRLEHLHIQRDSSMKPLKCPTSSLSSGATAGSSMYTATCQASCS

This experiment has as its target Glucagon-like peptide 1 receptor (Homo sapiens, UniProt P43220). The experiment in a line: Agonist activity at human GLP-1R expressed in CHO-K1 cells assessed as increase in cAMP level incubated for 30 mins. Type of experiment: functional, cell-based. (Changes in cAMP serve as a functional read-out for many G protein-coupled receptors.)
As for `CCc1cc(OC)ccc1-c1ccc(C[C@@H]2NC(=O)[C@H](CC(=O)O)NC(=O)[C@H](CO)NC(=O)[C@@H]3CSSC[C@@H](C(=O)O)NC(=O)[C@H](CSSC[C@H](NC(=O)CNC(=O)[C@H](CCC(=O)O)NC(=O)C(C)(C)NC(=O)[C@H](Cc4cnc[nH]4)NC(C)=O)C(=O)N[C@@](C)(Cc4c(F)cccc4F)C(=O)N3)NC(=O)[C@H](CC(C)C)NC(=O)[C@H](CCCc3ccccc3)NC2=O)cc1` (Ac-H[Aib]EGC[αMePhe(2,6-F2)]CSD[Bip(2'-Et-4'-OMe)][hhPhe]LCC-OH; disulfide 5-13, 7-14), the EC50 worked out at 0.069 µM. As for `CCc1cc(OC)ccc1-c1ccc(C[C@@H]2NC(=O)[C@H](CC(=O)O)NC(=O)[C@H](CO)NC(=O)[C@H]([C@@H](C)O)NC(=O)[C@](C)(Cc3ccccc3)NC(=O)[C@H]([C@@H](C)O)NC(=O)CNC(=O)[C@H](CCC(=O)O)NC(=O)[C@@H]3CCCN3C(=O)[C@H](Cc3cnc[nH]3)NC(=O)[C@H](CO)NC(=O)[C@@H]3CSSC[C@H](NC(=O)[C@H](CCCc4ccccc4)NC2=O)C(=O)NCC(=O)N[C@@H](Cc2ccc(-c4ccccc4)cc2)C(=O)N[C@@H](C)C(=O)N[C@@H](C)C(=O)NCC(=O)NCC(=O)NCC(=O)N[C@@H](C)C(=O)N3)cc1` (cyclo(AAGGGACSHPEGT[αMeF]TSD[Bip(2'-Et-4'-OMe)][hhPhe]CG[Bip]); disulfide 7-20), the EC50 worked out at 0.36 µM. Regarding `CCc1cc(OC)ccc1-c1ccc(C[C@H](NC(=O)[C@H](CC(=O)O)NC(=O)[C@H](CO)NC(=O)[C@@H](NC(=O)[C@](C)(Cc2c(F)cccc2F)NC(=O)[C@@H](NC(=O)CNC(=O)[C@H](CCC(=O)O)NC(=O)[C@@H]2CCCN2C(=O)[C@@H](N)Cc2cnc[nH]2)[C@@H](C)O)[C@@H](C)O)C(=O)N[C@@H](CCCc2ccccc2)C(=O)N[C@H]2CSSC[C@@H](C(=O)N[C@@H](CO)C(=O)O)NC(=O)[C@H](C(C)C)NC(=O)[C@H](C(C)C)NC(=O)CNC(=O)[C@H](C(C)C)NC(=O)[C@H](C(C)C)NC(=O)[C@H](C(C)C)NC(=O)CNC(=O)CNC2=O)cc1` (H-HPEGT[αMePhe(2,6-F2)]TSD[Bip(2'-Et-4'-OMe)][hhPhe]CGGVVVGVVCS-OH; disulfide 12-21), the EC50 stood at 0.019 µM.

In the case of `CCc1cc(OC)ccc1-c1ccc(C[C@@H]2NC(=O)[C@H](CC(=O)O)NC(=O)[C@H](CO)NC(=O)[C@H]([C@@H](C)O)NC(=O)[C@](C)(Cc3ccccc3)NC(=O)[C@H]([C@@H](C)O)NC(=O)CNC(=O)[C@H](CCC(=O)O)NC(=O)[C@@H]3CCCN3C(=O)[C@H](Cc3cnc[nH]3)NC(=O)[C@H](CO)NC(=O)[C@@H]3CSSC[C@H](NC(=O)[C@H](CCCc4ccccc4)NC2=O)C(=O)NCC(=O)NCC(=O)N[C@@H](CC(C)C)C(=O)N[C@@H](CC(C)C)C(=O)N[C@@H](CC(C)C)C(=O)NCC(=O)N[C@@H](CC(C)C)C(=O)N[C@@H](CC(C)C)C(=O)N3)cc1` (cyclo(CGGLLLGLLCSHPEGT[αMeF]TSD[Bip(2'-Et-4'-OMe)][hhPhe]); disulfide 1-10), the EC50 amounted to 2.8 µM. Consider `CCc1cc(OC)ccc1-c1ccc(C[C@H](NC(=O)[C@H](CC(=O)O)NC(=O)[C@H](CO)NC(=O)[C@@H](NC(=O)[C@](C)(Cc2c(F)cccc2F)NC(=O)[C@@H](NC(=O)CNC(=O)[C@H](CCC(=O)O)NC(=O)[C@@H]2CCCN2C(=O)[C@@H](N)Cc2cnc[nH]2)[C@@H](C)O)[C@@H](C)O)C(=O)N[C@@H](CCCc2ccccc2)C(=O)N[C@H]2CSSC[C@@H](C(=O)N[C@@H](CO)C(=O)O)NC(=O)[C@H](C)NC(=O)CNC(=O)CNC(=O)CNC(=O)[C@H](C)NC(=O)[C@H](C)NC(=O)CNC(=O)CNC2=O)cc1` (H-HPEGT[αMePhe(2,6-F2)]TSD[Bip(2'-Et-4'-OMe)][hhPhe]CGGAAGGGACS-OH; disulfide 12-21), for which the EC50 was 0.00085 µM.

With `CCc1cc(OC)ccc1-c1ccc(C[C@@H]2NC(=O)[C@H](CC(=O)O)NC(=O)[C@H](CO)NC(=O)[C@H]([C@@H](C)O)NC(=O)[C@](C)(Cc3ccccc3)NC(=O)[C@H]([C@@H](C)O)NC(=O)CNC(=O)[C@H](CCC(=O)O)NC(=O)[C@@H]3CCCN3C(=O)[C@H](Cc3cnc[nH]3)NC(=O)[C@H](CO)NC(=O)[C@@H]3CSSC[C@H](NC(=O)[C@H](CCCc4ccccc4)NC2=O)C(=O)NCC(=O)NCC(=O)N[C@@H](C)C(=O)N[C@@H](C)C(=O)NCC(=O)NCC(=O)NCC(=O)N[C@@H](C)C(=O)N3)cc1` (cyclo(AAGGGACSHPEGT[αMeF]TSD[Bip(2'-Et-4'-OMe)][hhPhe]CGG); disulfide 7-20), the EC50 was 2 µM.

On to `CCc1cc(OC)ccc1-c1ccc(C[C@H](NC(=O)[C@H](CC(=O)O)NC(=O)[C@H](CO)NC(=O)[C@@H](NC(=O)[C@](C)(Cc2ccccc2F)NC(=O)[C@H](CS)NC(=O)CNC(=O)[C@H](CCC(=O)O)NC(=O)C(C)(C)NC(=O)[C@@H](N)Cc2cnc[nH]2)[C@@H](C)O)C(=O)N[C@@H](CCCc2ccccc2)C(=O)N[C@H](CS)C(N)=O)cc1`, for which the EC50 is greater than 1 µM.

For the compound `CCc1cc(OC)ccc1-c1ccc(C[C@@H]2NC(=O)[C@H](CC(=O)O)NC(=O)[C@H](CO)NC(=O)[C@@H]3CSSC[C@@H](C(=O)O)NC(=O)[C@H](CSSC[C@H](NC(=O)CNC(=O)[C@H](CCC(=O)O)NC(=O)C(C)(C)NC(=O)[C@@H](N)Cc4cnc[nH]4)C(=O)NC(C)(Cc4ccccc4)C(=O)N3)NC(=O)[C@H](CC(C)C)NC(=O)[C@H](CCCc3ccccc3)NC2=O)cc1` (stereo not given in full) (H-H[Aib]EGC[ξαMeF]CSD[Bip(2'-Et-4'-OMe)][hhPhe]LCC-OH; disulfide 5-13, 7-14), the EC50 came out at 1.6 µM.

As to `CCc1cc(OC)ccc1-c1ccc(C[C@@H]2NC(=O)[C@H](CC(=O)O)NC(=O)[C@H](CO)NC(=O)[C@H]([C@@H](C)O)NC(=O)[C@](C)(Cc3ccccc3F)NC(=O)[C@H]([C@@H](C)O)NC(=O)CNC(=O)[C@H](CCC(=O)O)NC(=O)[C@@H]3CCCN3C(=O)[C@H](Cc3cnc[nH]3)NC(=O)[C@H](CO)NC(=O)[C@@H]3CSSC[C@H](NC(=O)[C@H](CCCc4ccccc4)NC2=O)C(=O)NCC(=O)NCC(=O)N[C@@H](C)C(=O)N[C@@H](C)C(=O)NCC(=O)NCC(=O)NCC(=O)N[C@@H](C)C(=O)N3)cc1` (cyclo(AAGGGACSHPEGT[αMePhe(2-F)]TSD[Bip(2'-Et-4'-OMe)][hhPhe]CGG); disulfide 7-20), the EC50 turned out to be 1 µM.

Regarding `CCc1cc(OC)ccc1-c1ccc(C[C@H](NC(=O)[C@H](CC(=O)O)NC(=O)[C@H](CO)NC(=O)[C@@H](NC(=O)[C@](C)(Cc2c(F)cccc2F)NC(=O)[C@@H](NC(=O)CNC(=O)[C@H](CCC(=O)O)NC(=O)[C@@H]2CCCN2C(=O)[C@@H](N)Cc2cnc[nH]2)[C@@H](C)O)[C@@H](C)O)C(=O)N[C@@H](CCCc2ccccc2)C(=O)N[C@H]2CSSC[C@@H](C(=O)N[C@@H](CO)C(=O)O)NC(=O)[C@H](C)NC(=O)CNC(=O)CNC(=O)CNC(=O)[C@H](C)NC(=O)[C@H](C)NC(=O)[C@H](Cc3ccc(-c4ccccc4)cc3)NC(=O)CNC2=O)cc1` (H-HPEGT[αMePhe(2,6-F2)]TSD[Bip(2'-Et-4'-OMe)][hhPhe]CG[Bip]AAGGGACS-OH; disulfide 12-21), the EC50 was found to be 0.0024 µM. Turning to `CCc1cc(OC)ccc1-c1ccc(C[C@@H]2NC(=O)[C@H](CC(=O)O)NC(=O)[C@H](CO)NC(=O)[C@@H]3CSSC[C@@H](C(=O)O)NC(=O)[C@H](CSSC[C@H](NC(=O)CNC(=O)[C@H](CCC(=O)O)NC(=O)C(C)(C)NC(=O)[C@@H](N)Cc4cnc[nH]4)C(=O)N[C@@H](Cc4ccccc4)C(=O)N3)NC(=O)[C@H](CC(C)C)NC(=O)[C@H](CCCc3ccccc3)NC2=O)cc1` (H-H[Aib]EGCFCSD[Bip(2'-Et-4'-OMe)][hhPhe]LCC-OH; disulfide 5-13, 7-14), the EC50 came to 16 µM.

`CCc1cc(OC)ccc1-c1ccc(C[C@H](NC(=O)[C@H](CC(=O)O)NC(=O)[C@H](CO)NC(=O)[C@@H](NC(=O)[C@](C)(Cc2ccccc2)NC(=O)[C@@H](NC(=O)CNC(=O)[C@H](CCC(=O)O)NC(=O)[C@@H]2CCCN2C(=O)[C@@H](N)Cc2cnc[nH]2)[C@@H](C)O)[C@@H](C)O)C(=O)N[C@@H](CCCc2ccccc2)C(=O)N[C@H]2CSSC[C@@H](C(=O)N[C@@H](CO)C(=O)O)NC(=O)[C@H](C)NC(=O)CNC(=O)CNC(=O)CNC(=O)[C@H](C)NC(=O)[C@H](C)NC(=O)[C@H](Cc3ccc(-c4ccccc4)cc3)NC(=O)CNC2=O)cc1` (H-HPEGT[αMeF]TSD[Bip(2'-Et-4'-OMe)][hhPhe]CG[Bip]AAGGGACS-OH; disulfide 12-21): the EC50 turned out to be 0.047 µM. In the case of `CCc1cc(OC)ccc1-c1ccc(C[C@@H]2NC(=O)[C@H](CC(=O)O)NC(=O)[C@H](CO)NC(=O)[C@@H]3CSSC[C@@H](C(=O)O)NC(=O)[C@H](CSSC[C@H](NC(=O)CNC(=O)[C@H](CCC(=O)O)NC(=O)C(C)(C)NC(=O)[C@@H](N)Cc4cnc[nH]4)C(=O)NC(C)(Cc4c(F)cccc4F)C(=O)N3)NC(=O)[C@H](CC(C)C)NC(=O)[C@H](CCCc3ccccc3)NC2=O)cc1` (stereo not given in full) (H-H[Aib]EGC[ξαMePhe(2,6-F2)]CSD[Bip(2'-Et-4'-OMe)][hhPhe]LCC-OH; disulfide 5-13, 7-14), the EC50 amounted to 0.43 µM. As for `CCc1cc(OC)ccc1-c1ccc(C[C@@H]2NC(=O)[C@H](CC(=O)O)NC(=O)[C@H](CO)NC(=O)[C@H]([C@@H](C)O)NC(=O)[C@](C)(Cc3c(F)cccc3F)NC(=O)[C@H]([C@@H](C)O)NC(=O)CNC(=O)[C@H](CCC(=O)O)NC(=O)[C@@H]3CCCN3C(=O)[C@H](Cc3cnc[nH]3)NC(=O)[C@H](CO)NC(=O)[C@@H]3CSSC[C@H](NC(=O)[C@H](CCCc4ccccc4)NC2=O)C(=O)NCC(=O)NCC(=O)N[C@@H](C(C)C)C(=O)N[C@@H](C(C)C)C(=O)N[C@@H](C(C)C)C(=O)NCC(=O)N[C@@H](C(C)C)C(=O)N[C@@H](C(C)C)C(=O)N3)cc1` (cyclo(CGGVVVGVVCSHPEGT[αMePhe(2,6-F2)]TSD[Bip(2'-Et-4'-OMe)][hhPhe]); disulfide 1-10), the EC50 turned out to be 1 µM. As to `CCc1cc(OC)ccc1-c1ccc(C[C@@H]2NC(=O)[C@H](CC(=O)O)NC(=O)[C@H](CO)NC(=O)[C@@H]3CSSC[C@@H](C(=O)O)NC(=O)[C@H](CSSC[C@H](NC(=O)CNC(=O)[C@H](CCC(=O)O)NC(=O)C(C)(C)NC(=O)[C@@H](N)Cc4cnc[nH]4)C(=O)NC(C)(Cc4ccccc4F)C(=O)N3)NC(=O)[C@H](CC(C)C)NC(=O)[C@H](CCCc3ccccc3)NC2=O)cc1` (stereo not given in full) (H-H[Aib]EGC[ξαMePhe(2-F)]CSD[Bip(2'-Et-4'-OMe)][hhPhe]LCC-OH; disulfide 5-13, 7-14), the EC50 worked out at 5 µM.

The values are drawn from ChEMBL document CHEMBL3632477 (2015).
